Measurements taken from ChEMBL document CHEMBL1130708, “Cytotoxic cycloartane-type triterpenes from Combretum quadrangulare” (1998).

Assay: Compound was tested for cytotoxic activity against murine colon 26-L5 carcinoma cells
Format: functional
Conditions: Mus musculus; read-out: ED50 (the source's name)

| Structure (SMILES) | EC50 [µM] |
| --- | --- |
| C=C(CC[C@@H](C)[C@H]1CC[C@@]2(C)[C@@H]3CC[C@H]4[C@](C)(C(=O)O)[C@@H](O)CC[C@@]45C[C@@]35CC[C@]12C)C(C)C | 62.4 |
| C=C(CC[C@@H](C)[C@H]1CC[C@@]2(C)[C@@H]3CC[C@H]4[C@](C)(C(=O)OC)[C@@H](O)C[C@@H]5O[C@H](C[C@]12C)[C@]31C[C@]541)C(C)C | 5.42 |
| C=C(CC[C@@H](C)[C@H]1CC[C@@]2(C)[C@@H]3CC[C@H]4[C@](C)(C(=O)O)[C@@H](O)C[C@H](OC(C)=O)[C@@]45C[C@@]35CC[C@]12C)C(C)C | 57.6 |
| C=C(C)[C@@H]1CC[C@H]([C@H]2CC[C@@]3(C)[C@@H]4CC[C@H]5[C@](C)(C(=O)OC)[C@@H](O)C[C@H](O)[C@@]56C[C@@]46CC[C@]23C)[C@@H](OC)O1 | 18.1 |
| C=C(CC[C@@H](C)[C@H]1CC[C@@]2(C)[C@@H]3CC[C@H]4[C@](C)(C(=O)O)[C@@H](O)C[C@H](O)[C@@]45C[C@@]35CC[C@]12C)C(C)C | 49.6 |
| COC(=O)[C@]1(C)[C@@H](O)C[C@H](O)[C@]23C[C@]24CC[C@]2(C)[C@@H]([C@H](C=O)C/C=C/C(C)(C)OO)CC[C@@]2(C)[C@@H]4CC[C@@H]13 | 9.54 |
| C=C(CC[C@@H](C)[C@H]1CC[C@@]2(C)[C@@H]3CC[C@H]4[C@](C)(C(=O)O)[C@@H](O)CC(=O)[C@@]45C[C@@]35CC[C@]12C)C(C)C | 58.6 |
| C=C(CC[C@@H](C)[C@H]1CC[C@@]2(C)[C@@H]3CC[C@H]4[C@](C)(C(=O)OC)[C@@H](OC(C)=O)C[C@@H]5O[C@H](C[C@]12C)[C@]31C[C@]541)C(C)C | 77.8 |
| C=C(CC[C@@H](C)[C@H]1CC[C@@]2(C)[C@@H]3CC[C@H]4[C@](C)(C(=O)O)[C@@H](OC(C)=O)C[C@H](OC(C)=O)[C@@]45C[C@@]35CC[C@]12C)C(C)C | 52.5 |
| COC(=O)[C@]1(C)[C@@H](O)C[C@H](O)[C@]23C[C@]24CC[C@]2(C)[C@@H]([C@H](C=O)C/C=C/C(C)(C)O)CC[C@@]2(C)[C@@H]4CC[C@@H]13 | 43.8 |
